Results published in BigSolDB 2.1.

C[C@H]1[C@H](C)CC[C@]2(C(=O)O)CC[C@]3(C)C(=CC[C@@H]4[C@@]5(C)CC[C@H](O)C(C)(C)[C@@H]5CC[C@]43C)[C@H]12 gave a solubility (mole fraction) (in MIBK, 278.2 K) of 0.00094, a solubility (mole fraction) (in MIBK, 283.2 K) of 0.00104 and a solubility (mole fraction) (in MIBK, 288.2 K) of 0.00106. For the same compound, the solubility (mole fraction) (in MIBK, 293.2 K) was 0.00109, the solubility (mole fraction) (in MIBK, 298.2 K) was 0.00127 and the solubility (mole fraction) (in MIBK, 303.2 K) was 0.00128. For the same compound, the solubility (mole fraction) (in MIBK, 308.2 K) was 0.0015, the solubility (mole fraction) (in MIBK, 313.2 K) was 0.00169 and the solubility (mole fraction) (in MIBK, 318.2 K) was 0.00184. For the same compound, the solubility (mole fraction) (in MTBE, 278.2 K) was 0.00167, the solubility (mole fraction) (in MTBE, 283.2 K) was 0.00175 and the solubility (mole fraction) (in MTBE, 288.2 K) was 0.0021. For the same compound, the solubility (mole fraction) (in MTBE, 293.2 K) was 0.00248, the solubility (mole fraction) (in MTBE, 298.2 K) was 0.00288 and the solubility (mole fraction) (in MTBE, 303.2 K) was 0.00305. It also gave a solubility (mole fraction) (in MTBE, 308.2 K) of 0.00311, a solubility (mole fraction) (in MTBE, 313.2 K) of 0.00315 and a solubility (mole fraction) (in MTBE, 318.2 K) of 0.00338. For the same compound, the solubility (mole fraction) (in n-butanol, 278.2 K) was 0.00153, the solubility (mole fraction) (in n-butanol, 283.2 K) was 0.00168 and the solubility (mole fraction) (in n-butanol, 288.2 K) was 0.00226. It also gave a solubility (mole fraction) (in n-butanol, 293.2 K) of 0.00266, a solubility (mole fraction) (in n-butanol, 298.2 K) of 0.00334 and a solubility (mole fraction) (in n-butanol, 303.2 K) of 0.00387. It also gave a solubility (mole fraction) (in n-butanol, 308.2 K) of 0.00411, a solubility (mole fraction) (in n-butanol, 313.2 K) of 0.00466 and a solubility (mole fraction) (in n-butanol, 318.2 K) of 0.00504.
